{
  "source": "patent US7728019B2",
  "about": "“Biphenylcarboxamides” (priority 2002, dated 2010)",
  "key": {"Botrytis cinerea": {"test_system": "Botrytis cinerea", "test": "Botrytis test (bean)/protective", "assay_type": "in vivo", "conditions": "48 h, bean plants, protective, application rate 500 g/ha, evaluation 2 days after inoculation, read-out: Efficacy in %", "procedure": "(§1) To produce a suitable preparation of active compound, 1 part by weight of active compound is mixed with the stated amounts of solvents and emulsifier, and the concentrate is diluted with water to the desired concentration.\nTo test for protective activity, young plants are sprayed with the preparation of active compound at the stated application rate. After the spray coating has dried on, 2 small pieces of agar colonized by Botrytis cinerea are placed onto each leaf. The inoculated plants are placed in a dark chamber at about 20° C. and 100% relative atmospheric humidity.\n2 days after the inoculation, the size of the infected areas on the leaves is evaluated. 0% means an efficacy which corresponds to that of the control, whereas an efficacy of 100% means that no infection is observed."}, "Alternaria solani": {"test_system": "Alternaria solani", "test": "Alternaria test (tomato)/protective", "assay_type": "in vivo", "conditions": "tomato plants, protective; application rate 750 g/ha; evaluation 7 days after inoculation", "procedure": "(§2) To produce a suitable preparation of active compound, 1 part by weight of active compound is mixed with the stated amounts of solvent and emulsifier, and the concentrate is diluted with water to the desired concentration.\nTo test for protective activity, young tomato plants are sprayed with the preparation of active compound at the stated application rate. 1 day after the treatment, the plants are inoculated with a spore suspension of Alternaria solani and then remain at 100% relative atmospheric humidity and 20° C. for 24 hours. The plants then remain at 96% relative atmospheric humidity and a temperature of 20° C.\nEvaluation is carried out 7 days after the inoculation. 0% means an efficacy which corresponds to that of the control, whereas an efficacy of 100% means that no infection is observed."}, "[1]": {"test": "logP determination by HPLC on reverse-phase column (C 18), acidic range pH 2.3", "assay_type": "physicochemical", "conditions": "reverse-phase HPLC column (C 18), HPLC, C 18 reverse-phase, 43° C.", "procedure": "The logP values given in Table 1 were determined with EEC Directive 79/831 Annex V.A8 by HPLC (High Performance Liquid Chromatography) on a reverse-phase column (C 18). Temperature: 43° C. Mobile phases for the determination in the acidic range (pH 2.3): 0.1% aqueous phosphoric acid, acetonitrile; linear gradient from 10% acetonitrile to 90% acetonitrile. Calibration was carried out using unbranched alkan-2-ones (having 3 to 16 carbon atoms) with known logP values (determination of the logP values by the retention times using linear interpolation between two successive alkanones)."}, "[2]": {"test_system": "apple scab pathogen Venturia inaequalis", "test": "Venturia test (apple)/protective", "assay_type": "in vivo", "conditions": "apple plants, protective; application rate 100 g/ha; evaluation 10 days after inoculation", "procedure": "as §1\nTo test for protective activity, young plants are sprayed with the preparation of active compound at the stated application rate. After the spray coating has dried on, the plants are inoculated with an aqueous conidia suspension of the apple scab pathogen Venturia inaequalis and then remain in an incubation cabin at about 20° C. and 100% relative atmospheric humidity for 1 day.\nThe plants are then placed in a greenhouse at about 21° C. and a relative atmospheric humidity of about 90%.\n(§3) Evaluation is carried out 10 days after the inoculation. 0% means an efficacy which corresponds to that of the control, whereas an efficacy of 100% means that no infection is observed."}, "Puccinia recondita": {"test_system": "Puccinia recondita", "test": "Puccinia test (wheat)/protective", "assay_type": "in vivo", "conditions": "240 h, wheat plants, protective, application rate 500 g/ha, evaluation 10 days after inoculation, read-out: Efficacy in %", "procedure": "as §2\nTo test for protective activity, young plants are inoculated with a spore suspension of Puccinia recondita in a 0.1% strength aqueous agar solution. After the spray coating has dried on, the plants are sprayed with the preparation of active compound at the stated application rate. The plants remain in an incubation cabin at 20° C. and 100% relative atmospheric humidity for 24 hours.\nThe plants are then placed in a greenhouse at a temperature of about 20° C. and a relative atmospheric humidity of 80% to promote the development of rust pustules.\nas §3"}, "[3]": {"test_system": "eggs of the diamond back moth (Plutella xylostella)", "test": "Plutella test", "assay_type": "in vivo", "conditions": "active compound concentration 1000 ppm, on synthetic feed", "procedure": "To produce a suitable preparation of active compound, 1 part by weight of active compound is mixed with the stated amount of solvent, and the concentrate is diluted with methanol to the desired concentrations.\nA stated amount of the preparation of active compound of the desired concentration is pipetted onto a standardized amount of synthetic feed. After the methanol has evaporated, about 200-300 eggs of the diamond back moth (Plutella xylostella) are placed onto the feed.\nAfter the desired period of time, the kill of the eggs in % is determined. 100% means that all animals have been killed; 0% means that none of the animals have been killed."}},
  "data": [
    {"molecule": "Cc1nc(C(F)(F)F)c(C(=O)Nc2ccccc2-c2ccc(/C=N\\OCC3CC3)cc2)s1", "note": "[Compound 2]", "values": [
      {"measurement": "pest or weed control at 500 g/ha", "setting": "Botrytis cinerea", "result": 98, "unit": "%"},
      {"measurement": "Efficacy in %", "setting": "Alternaria solani", "result": 90, "unit": "%"},
      {"measurement": "chromatographic logP", "setting": "[1]", "result": 4.16}
    ]},
    {"molecule": "C=CCO/N=C\\c1ccc(-c2ccccc2NC(=O)c2sc(C)nc2C(F)(F)F)cc1", "note": "[Compound 5]", "values": [
      {"measurement": "Efficacy in %", "setting": "[2]", "result": 100, "unit": "%"},
      {"measurement": "pest or weed control at 500 g/ha", "setting": "Botrytis cinerea", "result": 83, "unit": "%"},
      {"measurement": "Efficacy in %", "setting": "Alternaria solani", "result": 100, "unit": "%"},
      {"measurement": "chromatographic logP", "setting": "[1]", "result": 3.91}
    ]},
    {"molecule": "C=CCO/N=C\\c1ccc(-c2ccccc2NC(=O)c2c(C)nn(C)c2F)cc1", "note": "[Compound 6]", "values": [
      {"measurement": "pest or weed control at 500 g/ha", "setting": "Puccinia recondita", "result": 100, "unit": "%"},
      {"measurement": "Efficacy in %", "setting": "[2]", "result": 97, "unit": "%"},
      {"measurement": "pest or weed control at 500 g/ha", "setting": "Botrytis cinerea", "result": 98, "unit": "%"},
      {"measurement": "Efficacy in %", "setting": "Alternaria solani", "result": 100, "unit": "%"},
      {"measurement": "chromatographic logP", "setting": "[1]", "result": 3.47}
    ]},
    {"molecule": "C=CCO/N=C\\c1ccc(-c2ccccc2NC(=O)c2cccnc2Cl)cc1", "note": "[Compound 12]", "values": [
      {"measurement": "Efficacy in %", "setting": "Alternaria solani", "result": 100, "unit": "%"},
      {"measurement": "chromatographic logP", "setting": "[1]", "result": 3.3}
    ]},
    {"molecule": "C=CCO/N=C(/C)c1ccc(-c2ccccc2NC(=O)c2sc(C)nc2C(F)F)cc1", "note": "[Compound 15]", "values": [
      {"measurement": "Kill rate in % after 7 d", "setting": "[3]", "result": 95, "unit": "%"},
      {"measurement": "pest or weed control at 500 g/ha", "setting": "Puccinia recondita", "result": 100, "unit": "%"},
      {"measurement": "chromatographic logP", "setting": "[1]", "result": 3.92}
    ]},
    {"molecule": "CC1=C(C(=O)Nc2ccccc2-c2ccc(/C(C)=N\\OCC3CC3)cc2)SCCO1", "note": "[Compound 22]", "values": [
      {"measurement": "Kill rate in % after 7 d", "setting": "[3]", "result": 95, "unit": "%"},
      {"measurement": "chromatographic logP", "setting": "[1]", "result": 4.69}
    ]}
  ]
}
